# From PubChem BioAssay (NCI)
#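 Growth conditions: 96-well plates. Treatment: test compound, 48 hours, 5 concentrations. Analysis: linear interpolation between bracketing concentrations; unreached endpoints set to highest concentration. At the GI50, growth is halved. TGI: concentration producing complete growth inhibition.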
# Legend:
# Assay in all cases: DTP human tumour cell line panel, 48 h
# NCI-H522 lung = test system: NCI-H522 lung
# K-562 leukemia = test system: K-562 leukemia
# HL-60(TB) leukemia = test system: HL-60(TB) leukemia
# OVCAR-3 ovarian = test system: OVCAR-3 ovarian
# ACHN renal = test system: ACHN renal
# HCC-2998 colon = test system: HCC-2998 colon
# NCI-H23 lung = test system: NCI-H23 lung
# OVCAR-4 ovarian = test system: OVCAR-4 ovarian
# OVCAR-8 ovarian = test system: OVCAR-8 ovarian
# BT-549 breast = test system: BT-549 breast
# HCT-15 colon = test system: HCT-15 colon
# SF-295 CNS = test system: SF-295 CNS
# KM12 colon = test system: KM12 colon
# SNB-19 CNS = test system: SNB-19 CNS
# DU-145 prostate = test system: DU-145 prostate
# NCI-H226 lung = test system: NCI-H226 lung
# HT29 colon = test system: HT29 colon
# M14 melanoma = test system: M14 melanoma
# MALME-3M melanoma = test system: MALME-3M melanoma
# COLO 205 colon = test system: COLO 205 colon
# CAKI-1 renal = test system: CAKI-1 renal
# HS 578T breast = test system: HS 578T breast
# SNB-75 CNS = test system: SNB-75 CNS
# SF-539 CNS = test system: SF-539 CNS
# A549 NSCLC = test system: A549 NSCLC
# 786-0 renal = test system: 786-0 renal
# HOP-62 NSCLC = test system: HOP-62 NSCLC
# UO-31 renal = test system: UO-31 renal
smiles,measurement,setting,value
Nc1c(C(=O)Nc2ccccc2)sc2nc3c(cc12)CCCC3,GI50,NCI-H522 lung,0.872 µM
same,TGI,NCI-H522 lung,> 25.8 µM
same,GI50,K-562 leukemia,0.436 µM
same,TGI,K-562 leukemia,> 100 µM
same,GI50,HL-60(TB) leukemia,0.299 µM
same,TGI,HL-60(TB) leukemia,20.8 µM
same,GI50,OVCAR-3 ovarian,0.481 µM
same,TGI,OVCAR-3 ovarian,12.3 µM
same,GI50,ACHN renal,1.61 µM
same,TGI,ACHN renal,> 100 µM
same,GI50,HCC-2998 colon,1.99 µM
same,TGI,HCC-2998 colon,> 37.2 µM
same,GI50,NCI-H23 lung,1.08 µM
same,TGI,NCI-H23 lung,> 100 µM
same,GI50,OVCAR-4 ovarian,5.18 µM
same,TGI,OVCAR-4 ovarian,> 100 µM
same,GI50,OVCAR-8 ovarian,1.8 µM
same,TGI,OVCAR-8 ovarian,> 100 µM
same,GI50,BT-549 breast,3.89 µM
same,TGI,BT-549 breast,> 100 µM
same,GI50,HCT-15 colon,0.436 µM
same,TGI,HCT-15 colon,> 100 µM
same,GI50,SF-295 CNS,0.635 µM
same,TGI,SF-295 CNS,49.6 µM
same,GI50,KM12 colon,0.485 µM
same,TGI,KM12 colon,> 100 µM
same,GI50,SNB-19 CNS,18.1 µM
same,TGI,SNB-19 CNS,> 100 µM
same,GI50,DU-145 prostate,1.67 µM
same,TGI,DU-145 prostate,> 58.9 µM
same,GI50,NCI-H226 lung,3.31 µM
same,TGI,NCI-H226 lung,> 100 µM
same,GI50,HT29 colon,0.74 µM
same,TGI,HT29 colon,> 26.3 µM
same,GI50,M14 melanoma,0.487 µM
same,TGI,M14 melanoma,> 100 µM
same,GI50,MALME-3M melanoma,0.608 µM
same,TGI,MALME-3M melanoma,95.2 µM
same,GI50,COLO 205 colon,1.24 µM
same,TGI,COLO 205 colon,13.8 µM
same,GI50,CAKI-1 renal,1.13 µM
same,TGI,CAKI-1 renal,> 100 µM
same,GI50,HS 578T breast,2.73 µM
same,TGI,HS 578T breast,> 100 µM
same,GI50,SNB-75 CNS,0.551 µM
same,TGI,SNB-75 CNS,40.8 µM
same,GI50,SF-539 CNS,0.452 µM
same,TGI,SF-539 CNS,3.9 µM
same,GI50,A549 NSCLC,0.546 µM
same,TGI,A549 NSCLC,39.4 µM
same,GI50,786-0 renal,0.706 µM
same,TGI,786-0 renal,55 µM
same,GI50,HOP-62 NSCLC,0.781 µM
same,TGI,HOP-62 NSCLC,> 67.6 µM
same,GI50,UO-31 renal,1.48 µM
same,TGI,UO-31 renal,> 100 µM
